Drawing on patent US10035797B2, “Fused amino pyridine as HSP90 inhibitors” (Curis, Inc., priority 2007, dated 2018), this text covers IC50 for one compound.

SMILES strings stand for the structures.

The experiment addresses HSP90 (Homo sapiens (Human), UniProt P07900). The experiment is described as follows: HSP90 competition binding (fluorescence polarization) assay. The conditions noted are these: FITC labeled GM, 24 hours at 4° C. The text has this: (b) HSP90 Competition Binding (Fluorescence Polarization) Assay.
A fluorescein isothiocyanate (FITC) labeled GM was purchase from InvivoGen (ant-fgl-1). The interaction between HSP90 and labeled GM forms the basis for the fluorescence polarization assay. A free and fast-tumbling FITC labeled GM emits random light with respect to the plane of polarization plane of excited light, resulting in a lower polarization degree (mP) value. When GM is bound to HSP90, the complex tumble slower and the emitted light is polarized, resulting in a higher mP value. […] The assay buffer contained 20 mM HEPES (pH 7.3), 50 mM KCl, 1 mM DTT, 50 mM MgCl2, 20 mM Na2MoO4, 0.01% NP40 with 0.1 mg/ml bovine gamma-globulin.
For orientation: Polarisation of emitted light reports the rotation of a fluorescent probe.

Consider `CC(C)(C)CNCCCn1c(Sc2cc3c(cc2I)OCO3)nc2c(N)nccc21` [Compound 56, 2-(6-iodobenzo[d][1,3]dioxol-5-ylthio)-1-(3-(neopentylamino)propyl)-1H-imidazo[4,5-c]pyridin-4-amine], for which the IC50 is 100 to 1000 nM.

The term IC50 denotes the point on the concentration scale where inhibition reaches its midpoint. Low values mean greater potency in that assay, high ones weaker potency in that assay.
